These molecules were tested against PI3K delta (Homo sapiens, UniProt O00329) (assay: Luciferase-coupled chemiluminescence kinase assay (ATP consumption, KinaseGlo)).
Format: biochemical
Procedure, shortened: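 ATP consumption measured by KinaseGlo luciferase chemiluminescence after a 2 h reaction at ambient temperature, with ATP at or below the kinase KM. Ten inhibitor concentrations per curve; IC50 from four-parameter nonlinear regression.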

Sequence of PI3K delta (O00329 whole entry): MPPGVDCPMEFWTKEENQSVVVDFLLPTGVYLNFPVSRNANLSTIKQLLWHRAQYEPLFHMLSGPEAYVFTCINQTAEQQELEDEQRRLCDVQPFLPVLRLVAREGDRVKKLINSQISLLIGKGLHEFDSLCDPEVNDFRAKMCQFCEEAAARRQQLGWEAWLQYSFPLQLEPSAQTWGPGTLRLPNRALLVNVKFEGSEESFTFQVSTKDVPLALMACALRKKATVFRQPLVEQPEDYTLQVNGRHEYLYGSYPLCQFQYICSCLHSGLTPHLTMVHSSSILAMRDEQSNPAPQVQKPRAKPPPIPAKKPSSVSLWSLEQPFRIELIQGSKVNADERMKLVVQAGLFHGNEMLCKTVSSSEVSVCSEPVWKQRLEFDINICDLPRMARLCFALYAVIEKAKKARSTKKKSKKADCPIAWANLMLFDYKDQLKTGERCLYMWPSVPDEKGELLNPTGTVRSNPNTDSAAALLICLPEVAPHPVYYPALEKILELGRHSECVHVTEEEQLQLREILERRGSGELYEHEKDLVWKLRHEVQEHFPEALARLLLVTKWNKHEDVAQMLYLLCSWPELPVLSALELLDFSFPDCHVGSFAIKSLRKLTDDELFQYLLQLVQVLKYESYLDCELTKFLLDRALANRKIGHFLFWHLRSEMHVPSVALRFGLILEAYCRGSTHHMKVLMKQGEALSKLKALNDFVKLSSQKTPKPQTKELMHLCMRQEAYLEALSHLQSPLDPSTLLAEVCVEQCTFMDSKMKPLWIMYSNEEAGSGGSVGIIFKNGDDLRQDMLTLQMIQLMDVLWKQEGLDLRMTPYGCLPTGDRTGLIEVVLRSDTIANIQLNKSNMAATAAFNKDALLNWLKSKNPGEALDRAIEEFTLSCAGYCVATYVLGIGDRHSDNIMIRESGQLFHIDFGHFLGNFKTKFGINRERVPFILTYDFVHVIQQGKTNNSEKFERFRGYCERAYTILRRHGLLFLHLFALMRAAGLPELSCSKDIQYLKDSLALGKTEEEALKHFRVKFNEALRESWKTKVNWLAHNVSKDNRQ
Sequence of PI3K delta (P27986 whole entry partner): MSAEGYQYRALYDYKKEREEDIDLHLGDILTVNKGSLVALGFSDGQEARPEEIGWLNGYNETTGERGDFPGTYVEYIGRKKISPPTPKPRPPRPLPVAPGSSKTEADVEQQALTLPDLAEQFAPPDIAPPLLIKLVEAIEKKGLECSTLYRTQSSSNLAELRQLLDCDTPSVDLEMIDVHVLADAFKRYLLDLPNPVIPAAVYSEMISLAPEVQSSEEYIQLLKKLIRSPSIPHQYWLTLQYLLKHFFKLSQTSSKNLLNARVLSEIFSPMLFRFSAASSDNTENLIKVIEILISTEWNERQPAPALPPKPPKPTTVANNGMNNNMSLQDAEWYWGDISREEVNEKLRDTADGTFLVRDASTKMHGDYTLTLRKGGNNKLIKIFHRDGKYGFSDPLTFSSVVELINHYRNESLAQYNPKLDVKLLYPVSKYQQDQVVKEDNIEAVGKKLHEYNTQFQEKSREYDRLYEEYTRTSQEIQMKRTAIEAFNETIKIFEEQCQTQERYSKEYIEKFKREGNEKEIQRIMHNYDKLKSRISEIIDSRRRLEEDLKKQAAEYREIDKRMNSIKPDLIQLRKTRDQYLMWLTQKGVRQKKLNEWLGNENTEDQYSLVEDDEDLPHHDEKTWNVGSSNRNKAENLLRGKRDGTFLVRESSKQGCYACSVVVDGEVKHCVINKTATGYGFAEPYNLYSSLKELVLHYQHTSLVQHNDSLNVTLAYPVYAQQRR

First: Cn1cc(-c2nc3c(N4CCN(S(=O)(=O)c5cc(Cl)ccc5Cl)CC4)ncnc3n2C)cn1 [Compound 379, 6-{4-[(2,5-dichlorophenyl)sulfonyl]piperazin-1-yl)-9-methyl-8-(1-methyl-1H-pyrazol-4-yl)-9H-purine]
Second: Cn1cc(-c2nc3c(N4CCN(S(=O)(=O)c5cccnc5Cl)CC4)ncnc3n2C)cn1 [Compound 390, 6-{4-[(2-chloropyridin-3-yl)sulfonyl]piperazin-1-yl}-9-methyl-8-(1-methyl-1H-pyrazol-4-yl)-9H-purine]
The IC50 of the first is lower: 0.05 to 0.25 µM for the first, 0.5 to 1.5 µM for the second. The first is the more potent here.

First: Cn1c(C(=O)N2CC(F)(F)C2)nc2c(N3CCC(n4c(=O)[nH]c5ccccc54)CC3)ncnc21 [Compound 104, 1-(1-{8-[(3,3-difluoroazetidin-1-yl)carbonyl]-9-methyl-9H-purin-6-yl}piperidin-4-yl)-1,3-dihydro-2H-benzimidazol-2-one]
Second: CCn1c(C(=O)N2CCC(F)(F)C2)nc2c(N3CCC(n4c(=O)[nH]c5ccccc54)CC3)ncnc21 [Compound 191, 1-(1-{8-[(3,3-difluoropyrrolidin-1-yl)carbonyl]-9-ethyl-9H-purin-6-yl}piperidin-4-yl)-1,3-dihydro-2H-benzimidazol-2-one]
The IC50 of the first is higher: 0.05 to 0.25 µM for the first, less than 0.05 µM for the second. The second is the more potent here.

First: Cn1c(C(=O)NCc2cccc(F)c2)nc2c(N3CCC4(CC3)C(=O)Nc3ccccc34)ncnc21 [Compound 28, N-[(3-fluorophenyl)methyl]-9-methyl-6-(2-oxo-1,2-dihydro-1′H-spiro[indole-3,4′-piperidin]-1′-yl)-9H-purine-8-carboxamide]
Second: Cn1c(C(=O)NCc2ccc(F)cc2F)nc2c(N3CCC4(CC3)C(=O)Nc3ccccc34)ncnc21 [Compound 33, N-[(2,4-difluorophenyl)methyl]-9-methyl-6-(2-oxo-1,2-dihydro-1′H-spiro[indole-3,4′-piperidin]-1′-yl)-9H-purine-8-carboxamide]
The IC50 of the first is lower: 0.25 to 0.5 µM for the first, 0.5 to 1.5 µM for the second. The first is the more potent here.

Compared with `CCn1c(C(=O)NCC2(O)CC2)nc2c(N3CCC4(CC3)C(=O)Nc3ccccc34)ncnc21` [Compound 215, 9-ethyl-N-[(1-hydroxycyclopropyl)methyl]-6-(2-oxo-1,2-dihydro-1′H-spiro[indole-3,4′-piperidin]-1′-yl)-9H-purine-8-carboxamide], `Cn1c(C(=O)NCC(C)(C)O)nc2c(N3CCC4(CC3)C(=O)Nc3ccccc34)ncnc21` [Compound 83, N-(2-hydroxy-2-methylpropyl)-9-methyl-6-(2-oxo-1,2-dihydro-1′H-spiro[indole-3,4′-piperidin]-1′-yl)-9H-purine-8-carboxamide] is higher in IC50: less than 0.05 µM for the first, 0.05 to 0.25 µM for the second. The first is the more potent here.

First: Cn1cc(-c2nc3c(N4CC[C@@H](n5c(=O)[nH]c6ccccc65)[C@H](CO)C4)ncnc3n2C)cn1 [Compound 338, 1-{(3R,4R)-3-(hydroxymethyl)-1-[9-methyl-8-(1-methyl-1H-pyrazol-4-yl)-9H-purin-6-yl]piperidin-4-yl}-1,3-dihydro-2H-benzimidazol-2-one]
Second: COC(=O)[C@H]1CN(c2ncnc3c2nc(-c2cnn(C)c2)n3C)CC[C@H]1n1c(=O)[nH]c2ccccc21 [Compound 317, methyl (3S,4R)-1-[9-methyl-8-(1-methyl-1H-pyrazol-4-yl)-9H-purin-6-yl]-4-(2-oxo-2,3-dihydro-1H-benzimidazol-1-yl)piperidine-3-carboxylate]
The IC50 of the first is lower: 0.05 to 0.25 µM for the first, 0.5 to 1.5 µM for the second.

First: Cn1c(C(=O)NCC2CC2)nc2c(N3CCC(n4c(=O)oc5ccccc54)CC3)ncnc21 [Compound 118, N-(cyclopropylmethyl)-9-methyl-6-[4-(2-oxo-1,3-benzoxazol-3(2H)-yl)piperidin-1-yl]-9H-purine-8-carboxamide]
Second: Cn1c(C(=O)NCC2CC2)nc2c(N3CCC(n4c(=O)[nH]c5ccccc54)C3)ncnc21 (stereo not drawn) [Compound 172, N-(cyclopropylmethyl)-9-methyl-6-[3-(2-oxo-2,3-dihydro-1H-benzimidazol-1-yl)pyrrolidin-1-yl]-9H-purine-8-carboxamide]
The IC50 of the first is lower: 0.05 to 0.25 µM for the first, 0.5 to 1.5 µM for the second. The first is the more potent here.

First: CCn1c(C(=O)NCC(C)(C)C)nc2c(N3CCC(n4c(=O)[nH]c5ccccc54)CC3)ncnc21 [Compound 190, N-(2,2-dimethylpropyl)-9-ethyl-6-[4-(2-oxo-2,3-dihydro-1H-benzimidazol-1-yl)piperidin-1-yl]-9H-purine-8-carboxamide]
Second: CCCCCNC(=O)c1nc2c(N3CCC(n4c(=O)[nH]c5ccccc54)CC3)ncnc2n1C [Compound 70, 9-methyl-6-[4-(2-oxo-2,3-dihydro-1H-benzimidazol-1-yl)piperidin-1-yl]-N-pentyl-9H-purine-8-carboxamide]
The IC50 of the first is lower: less than 0.05 µM for the first, 0.25 to 0.5 µM for the second. The first is the more potent here.

`Cn1c(C(=O)NC2CCC2)nc2c(N3CCC4(CC3)C(=O)Nc3ccccc34)ncnc21` [Compound 15, N-cyclobutyl-9-methyl-6-(2-oxo-1,2-dihydro-1′H-spiro[indole-3,4′-piperidin]-1′-yl)-9H-purine-8-carboxamide] and `CC(NC(=O)c1nc2c(N3CCC4(CC3)C(=O)Nc3ccccc34)ncnc2n1C)C1CC1` (stereo not drawn) [Compound 84, N-(1-cyclopropylethyl)-9-methyl-6-(2-oxo-1,2-dihydro-1′H-spiro[indole-3,4′-piperidin]-1′-yl)-9H-purine-8-carboxamide] fall in the same range of IC50: 0.05 to 0.25 µM for the first, 0.05 to 0.25 µM for the second.

`Cn1c(-c2cncnc2)nc2c(N3CCC4(CC3)C(=O)Nc3ccccc34)ncnc21` [Compound 293, 1′-(9-Methyl-8-pyrimidin-5-yl-9H-purin-6-yl)spiro[indole-3,4′-piperidin]-2(1H)-one] and `Cn1cc(-c2nc3c(N4CCC5(CC4)C(=O)Nc4ccccc45)ncnc3n2C)cn1` [Compound 239, 1′-[9-methyl-8-(1-methyl-1H-pyrazol-4-yl)-9H-purin-6-yl]spiro[indole-3,4′-piperidin]-2(1H)-one] cannot be ordered by IC50: less than 0.05 µM for the first, less than 0.05 µM for the second.

First: Cn1c(C(=O)NCc2ccco2)nc2c(N3CCC4(CC3)C(=O)Nc3ccccc34)ncnc21 [Compound 17, N-(furan-2-ylmethyl)-9-methyl-6-(2-oxo-1,2-dihydro-1′H-spiro[indole-3,4′-piperidin]-1′-yl)-9H-purine-8-carboxamide]
Second: COc1ccccc1CNC(=O)c1nc2c(N3CCC4(CC3)C(=O)Nc3ccccc34)ncnc2n1C [Compound 26, 9-methyl-N-([2-(methyloxy)phenyl]methyl)-6-(2-oxo-1,2-dihydro-1′H-spiro[indole-3,4′-piperidin]-1′-yl)-9H-purine-8-carboxamide]
The IC50 of the first is lower: 0.05 to 0.25 µM for the first, 0.5 to 1.5 µM for the second. The first is the more potent here.

First: CN(CCC#N)C(=O)c1nc2c(N3CCC4(CC3)C(=O)Nc3ccccc34)ncnc2n1C [Compound 39, N-(2-cyanoethyl)-N,9-dimethyl-6-(2-oxo-1,2-dihydro-1′H-spiro[indole-3,4′-piperidin]-1′-yl)-9H-purine-8-carboxamide]
Second: CC(C)CNC(=O)c1nc2c(N3CCC4(CC3)C(=O)Nc3ccccc34)ncnc2n1C1CC1 [Compound 176, 9-cyclopropyl-N-(2-methylpropyl)-6-(2-oxo-1,2-dihydro-1′H-spiro[indole-3,4′-piperidin]-1′-yl)-9H-purine-8-carboxamide]
The IC50 of the first is higher: 0.5 to 1.5 µM for the first, 0.05 to 0.25 µM for the second.

`CCn1c(-c2ccnnc2)nc2c(N3CCC(n4c(=O)[nH]c5ccccc54)CC3)ncnc21` [Compound 312, 1-[1-(9-ethyl-8-pyridazin-4-yl-9H-purin-6-yl)piperidin-4-yl]-1,3-dihydro-2H-benzimidazol-2-one] and `CCn1c(-c2cnn(C)c2)nc2c(N3CCC(n4c(=O)[nH]c5ccccc54)CC3)ncnc21` [Compound 243, 1-{1-[9-ethyl-8-(1-methyl-1H-pyrazol-4-yl)-9H-purin-6-yl]piperidin-4-yl}-1,3-dihydro-2H-benzimidazol-2-one] cannot be ordered by IC50: less than 0.05 µM for the first, less than 0.05 µM for the second.

Compared with `CCn1ncc(-c2nc3c(N4CCC(n5c(=O)[nH]c6c(F)cccc65)CC4)ncnc3n2C)c1C` [Compound 345, 1-{1-[8-(1-ethyl-5-methyl-1H-pyrazol-4-yl)-9-methyl-9H-purin-6-yl]piperidin-4-yl}-4-fluoro-1,3-dihydro-2H-benzimidazol-2-one], `Cc1nnc(-c2nc3c(N4CCC(n5c(=O)[nH]c6ccccc65)CC4)ncnc3n2C)o1` [Compound 102, 1-{1-[9-methyl-8-(5-methyl-1,3,4-oxadiazol-2-yl)-9H-purin-6-yl]piperidin-4-yl}-1,3-dihydro-2H-benzimidazol-2-one] is higher in IC50: less than 0.05 µM for the first, 0.05 to 0.25 µM for the second.

`Cn1c(C(=O)NC2CCC2)nc2c(N3CCC(n4c(=O)[nH]c5ccccc54)CC3)ncnc21` [Compound 44, N-cyclobutyl-9-methyl-6-[4-(2-oxo-2,3-dihydro-1H-benzimidazol-1-yl)piperidin-1-yl]-9H-purine-8-carboxamide] and `Cn1c(C(=O)NCc2cccc(F)c2)nc2c(N3CCC(n4c(=O)[nH]c5ccccc54)CC3)ncnc21` [Compound 58, N-[(3-fluorophenyl)methyl]-9-methyl-6-[4-(2-oxo-2,3-dihydro-1H-benzimidazol-1-yl)piperidin-1-yl]-9H-purine-8-carboxamide] fall in the same range of IC50: 0.05 to 0.25 µM for the first, 0.05 to 0.25 µM for the second.

First: Cc1ccc(-c2nc3c(N4CCC(n5c(=O)[nH]c6ccccc65)CC4)ncnc3n2C)o1 [Compound 115, 1-{1-[9-methyl-8-(5-methylfuran-2-yl)-9H-purin-6-yl]piperidin-4-yl}-1,3-dihydro-2H-benzimidazol-2-one]
Second: Cc1nc(-c2ccccc2)n(OCC2CCN(c3ncnc4c3nc(-c3cnn(C)c3)n4C)CC2)c1C [Compound 2, 6-(4-(((4,5-Dimethyl-2-phenyl-1H-imidazol-1-yl)oxy)methyl)piperidin-1-yl)-9-methyl-8-(1-methyl-M-pyrazol-4-yl)-9H-purine]
The IC50 of the first is lower: 0.25 to 0.5 µM for the first, 0.5 to 1.5 µM for the second.

First: CCCc1nnc(-c2nc3c(N4CCC5(CC4)C(=O)Nc4ccccc45)ncnc3n2CC)o1 [Compound 227, 1′-[9-ethyl-8-(5-propyl-1,3,4-oxadiazol-2-yl)-9H-purin-6-yl]spiro[indole-3,4′-piperidin]-2(1H)-one]
Second: Cn1c(C(=O)NCC2CC2)nc2c(N3CCC4(CC3)Nc3ccccc3NC4=O)ncnc21 [Compound 249, N-(cyclopropylmethyl)-9-methyl-6-(3′-oxo-3′,4′-dihydro-1H,1′H-spiro[piperidine-4,2′-quinoxalin]-1-yl)-9H-purine-8-carboxamide]
The IC50 of the first is lower: less than 0.05 µM for the first, 0.5 to 1.5 µM for the second. The first is the more potent here.

With `Cc1ccc(S(=O)(=O)N2CCN(c3ncnc4c3nc(-c3cnn(C)c3)n4C)CC2)cc1` [Compound 370, 9-methyl-6-{4-[(4-methylphenyl)sulfonyl]-piperazin-1-yl)-8-(1-methyl-1H-pyrazol-4-yl)-9H-purine] the IC50 was 0.5 to 1.5 µM.
